The values that follow come from the supplement of paper PMC10307832.

Test in all cases: relative viability (nuclei count vs DMSO), 5 days (fraction); higher = more cells survive
Compound in assay [1]: C1=CC2=NC=CN=C2C=C1/C=C/3\C(=O)NC(=O)S3 + C[C@@H](Oc1cc(-c2cnn(C3CCNCC3)c2)cnc1N)c1c(Cl)ccc(F)c1Cl [Crizotinib] (partner 1 µM)
The gist of the method:
(§1)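 Values are medians from duplicate plates. Each reflects relative viability, defined as the nuclei count of treated wells over that of vehicle wells. Lung cancer cell lines in 1536-well plates were pin-tool dosed one day after seeding with one drug alone or with a fixed anchor-drug dose plus five library-drug doses (not always all listed) in √10 steps, then fixed, stained and imaged at 4× after 5 days.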

Compound in the assay “BGJ398 + Alpelisib”: CCN1CCN(c2ccc(Nc3cc(N(C)C(=O)Nc4c(Cl)c(OC)cc(OC)c4Cl)ncn3)cc2)CC1 [BGJ398] + Cc1nc(NC(=O)N2CCC[C@H]2C(N)=O)sc1-c1ccnc(C(C)(C)C(F)(F)F)c1 [Alpelisib] (partner 2 µM)
An outline of the steps:
as §1

Compound in the assay “BGJ398 + Vorinostat”: CCN1CCN(c2ccc(Nc3cc(N(C)C(=O)Nc4c(Cl)c(OC)cc(OC)c4Cl)ncn3)cc2)CC1 [BGJ398] + O=C(CCCCCCC(=O)Nc1ccccc1)NO [Vorinostat] (partner 1 µM)
An outline of the steps: as §1

Compound in assay [2]: C1=CC2=NC=CN=C2C=C1/C=C/3\C(=O)NC(=O)S3 + Nc1nc2[nH]cc(CCc3ccc(C(=O)N[C@@H](CCC(=O)O)C(=O)O)cc3)c2c(=O)[nH]1 [Pemetrexed] (partner 0.2 µM)
An outline of the steps:
as §1

For the cell line UMC-11, the relative viability in assay [1] (first compound 0.02 µM) was 0.627; in assay [1] (first compound 0.06325 µM), 0.572; in assay [1] (first compound 0.2 µM), 0.557; in assay [1] (first compound 0.6325 µM), 0.603; in assay [1] (first compound 2 µM) it was 0.722; with BGJ398 + Alpelisib (first compound 0.01 µM), 0.999. Moreover, the relative viability with BGJ398 + Alpelisib (first compound 0.03162 µM) was 0.88; with BGJ398 + Alpelisib (first compound 0.1 µM) it was 1.06; with BGJ398 + Alpelisib (first compound 0.3162 µM), 0.983; with BGJ398 + Alpelisib (first compound 1 µM) it was 0.907; with BGJ398 + Vorinostat (first compound 0.01 µM) it was 0.363; with BGJ398 + Vorinostat (first compound 0.03162 µM) it was 0.407. Besides, the relative viability in the assay with BGJ398 + Vorinostat (first compound 0.1 µM) came out at 0.376; with BGJ398 + Vorinostat (first compound 0.3162 µM), 0.376; with BGJ398 + Vorinostat (first compound 1 µM), 0.382; in assay [2] (first compound 0.02 µM), 0.775; in assay [2] (first compound 0.06325 µM) it was 0.816; in assay [2] (first compound 0.2 µM), 0.862. Besides, the figures for the relative viability in assay [2] (first compound 0.6325 µM) and in assay [2] (first compound 2 µM) were 0.79 and 0.887, respectively.
